Experimental data taken from US20030181333A1, “Herbicide combinations comprising specific sulfonylureas” (Bayer CropScience GmbH, priority 2002, published 2003).

How the values were obtained:
Format in all cases: in vivo
Conditions in all cases: applied at 3-5 leaf stage, scored visually approx. 4-6 weeks after application, means of 2-3 repetitions, g of AS/ha: (A1 + B2)^S 12.5 + 6.25; Azur 800 + 40 + 200; B2 5; E) 60
Winter wheat = experiment: Outdoor trial: compatibility, % damage to crop
Description: (§1) Herbicidal action and compatibility in outdoor trials
(§2) The plants were sown and cultivated (fertilization, irrigation, etc.) as customary in practice on trial fields with naturally occurring weeds.
(§3) The experiments were designed as random tests of 2 plots of 5-10 m^2, with 2-3 repetitions. Application was carried out using plot sprayers at the 3-5 leaf stage. The test substances were made up in 100-600 liters of water/ha and applied with a pressure of 3 bar.
(§4) After the treatment (approx. 4-6 weeks after application), the herbidical activity of the active compounds or active compound mixtures was scored visually by comparing the treated plants with the untreated controls. The damage and development of all above-ground parts of the plants was recorded. Scoring was done on a percentage scale (100% action=all plants dead; 50% action=50% of the plants and green plant parts dead; 0% action=no discernible action or damage to crop species.
(§5) In the tables below, the results are given as the means of 2-3 repetitions, and the activity achieved when active compounds (A+B) and C) were applied independently is stated in brackets.

Avena fatua = experiment: Outdoor trial: herbicidal action, visual score
Description: as §1, §2, §3, §4, §5

Galium aparine = experiment: Outdoor trial: herbicidal action, visual score
Description: as §1, §2, §3, §4, §5

With `COC(=O)c1ccc(I)cc1S(=O)(=O)[N-]C(=O)Nc1nc(C)nc(OC)n1.[Na+]` [B2, iodosulfuron-methyl-sodium] the “Winter wheat % Damage” value (Winter wheat) was 0%, the “% Activity Avena fatua” value (Avena fatua) was 68% and the “% Activity Galium aparine” value (Galium aparine) was 25%.

For `CCOC(=O)[C@@H](C)Oc1ccc(Oc2nc3ccc(Cl)cc3o2)cc1` [E), fenoxaprop-(P)-ethyl], the “% Activity Avena fatua” value (Avena fatua) was 70) % and the “% Activity Galium aparine” value (Galium aparine) was 0) %.
